Source: the supplement of paper PMC4862054

Legend:
[1] = test system: HDQ-P1; assay: normalised viability (% of control), CellTiter-Blue; higher = more viable cells (about 100 = DMSO control); settings: 30 nM; incubation time: 72 h
In short: (§1)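 Each value is normalised viability at a single listed concentration of the series. Breast cancer cell lines in 384-well plates were incubated 72 h with compound and read by CellTiter-Blue fluorescence at 560/590 nm, with vehicle set to 100 and a positive kill control to 0 on every plate.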

[2] = test system: CAL-85-1; assay: as above; settings: 30 nM; incubation time: 72 h
In short: as §1

[3] = test system: DU-4475; assay: as above; settings: 30 nM; incubation time: 72 h
In short: as §1

[4] = test system: MDA-MB-231; assay: as above; settings: 1000 nM; incubation time: 72 h
In short: as §1

[5] = test system: CAL-51; settings: 72 h
Procedure: (§2)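 Drug sensitivity and resistance testing (DSRT) of breast cancer cell lines in 384-well plates, 5 concentrations in 10-fold dilutions over a compound-specific 10,000-fold range. After 72 h, cytotoxicity was read by CellTox Green fluorescence and viability by CellTiter-Glo luminescence (multiplexed), normalised to DMSO and benzethonium chloride controls. EC50 is the inflection point of the fitted dose-response curve (bottom asymptote free, so it can be relative for partial curves) and is censored at the highest tested concentration. Rows with DSS 0 (no meaningful response) were excluded.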

[6] = test system: CAL-85-1; settings: 72 h
Procedure: as §2

[7] = test system: HCC1599; settings: 72 h
In short: (§3)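 Rows with a drug sensitivity score of zero were dropped, and EC50 was taken from the fitted percent-inhibition dose-response curve, censored at the highest concentration. Data were normalised on each plate to vehicle and a positive kill control and checked by Z'-factor. The assay seeded breast cancer cell lines in 20 µl onto 384-well plates pre-loaded with compound in 5 µl medium for 72 h, then added 2.5 µl CellTiter-Blue for 2 h at 37 °C and read fluorescence at 560/590 nm.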

[8] = test system: HCC1937; settings: 72 h
In short: as §3

[9] = test system: Hs578T; settings: 72 h
In short: as §3

[10] = test system: HCC1143; settings: 72 h
In short: as §3

[11] = test system: CAL-120; settings: 72 h
In short: as §3

[12] = test system: SK-BR-3; settings: 72 h
In short: as §3

[13] = test system: MDA-MB-468; settings: 72 h
In short: as §3

[14] = test system: BT-474; settings: 72 h
In short: as §3

[15] = test system: MFM-223; settings: 72 h
In short: as §3

[16] = test system: MDA-MB-231; settings: 72 h
In short: as §3

[17] = test system: BT-549; settings: 72 h
In short: as §3

[18] = test system: HDQ-P1; settings: 72 h
In short: (§4)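 Breast cancer cell lines in 20 µl suspension were added to 384-well plates already holding compound at 5 concentrations, spaced in 10-fold steps across a compound-specific 10,000-fold range, and incubated for 72 h. CellTox Green fluorescence (485/520 nm) was read first to measure cell death, followed by CellTiter-Glo luminescence for viability after 10 min at room temperature. Each plate was normalised to 0.1 % DMSO and a positive kill control. EC50 values came from dose-response curve fits and were censored at the top concentration.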

[19] = test system: HCC1599; settings: 72 h; remark: listed apart in the source
In short: as §4

[20] = test system: CAL-148; settings: 72 h
In short: as §4

[21] = test system: DU-4475; settings: 72 h
In short: as §4

[22] = test system: MFM-223; settings: 72 h; remark: listed apart in the source
In short: as §4

[23] = test system: HDQ-P1; settings: 72 h; remark: listed apart in the source
In short: as §3

[24] = test system: CAL-51; settings: 72 h; remark: listed apart in the source
In short: as §3

[25] = test system: CAL-148; settings: 72 h; remark: listed apart in the source
In short: as §3

[26] = test system: CAL-85-1; settings: 72 h; remark: listed apart in the source
In short: as §3

[27] = test system: DU-4475; settings: 72 h; remark: listed apart in the source
In short: as §3

[28] = test system: HDQ-P1; settings: 72 h; remark: listed apart in the source
Procedure: as §2

[29] = test system: HCC1937; settings: 72 h; remark: listed apart in the source
Procedure: as §2

[30] = test system: MCF-10A; settings: 72 h
Procedure: as §2

[31] = test system: MDA-MB-468; settings: 72 h; remark: listed apart in the source
Procedure: as §2

[32] = test system: BT-474; settings: 72 h; remark: listed apart in the source
Procedure: as §2

[33] = test system: MDA-MB-436; settings: 72 h
Procedure: as §2

[34] = test system: MDA-MB-453; settings: 72 h
Procedure: as §2

[35] = test system: MFM-223; settings: 72 h; remark: listed apart in the source
Procedure: as §2

[36] = test system: MDA-MB-231; settings: 72 h; remark: listed apart in the source
Procedure: as §2

[37] = test system: BT-549; settings: 72 h; remark: listed apart in the source
Procedure: as §2

[38] = test system: MDA-MB-436; settings: 72 h; remark: listed apart in the source
In short: as §3

[39] = test system: HCC1143; settings: 72 h; remark: listed apart in the source
In short: as §4

Structure (SMILES) | normalised viability [1] [%] | normalised viability [2] [%] | normalised viability [3] [%] | normalised viability [4] [%] | EC50, CellTox Green [5] [nM] | EC50, CellTox Green [6] [nM] | EC50, CellTiter-Blue viability [7] [nM] | EC50, CellTiter-Blue viability [8] [nM] | EC50, CellTiter-Blue viability [9] [nM] | EC50, CellTiter-Blue viability [10] [nM] | EC50, CellTiter-Blue viability [11] [nM] | EC50, CellTiter-Blue viability [12] [nM] | EC50, CellTiter-Blue viability [13] [nM] | EC50, CellTiter-Blue viability [14] [nM] | EC50, CellTiter-Blue viability [15] [nM] | EC50, CellTiter-Blue viability [16] [nM] | EC50, CellTiter-Blue viability [17] [nM] | EC50, CellTiter-Glo [18] [nM] | EC50, CellTiter-Glo [19] [nM] | EC50, CellTiter-Glo [20] [nM] | EC50, CellTiter-Glo [21] [nM] | EC50, CellTiter-Glo [22] [nM] | EC50, CellTiter-Blue viability [23] [nM] | EC50, CellTiter-Blue viability [24] [nM] | EC50, CellTiter-Blue viability [25] [nM] | EC50, CellTiter-Blue viability [26] [nM] | EC50, CellTiter-Blue viability [27] [nM] | EC50, CellTox Green [28] [nM] | EC50, CellTox Green [29] [nM] | EC50, CellTox Green [30] [nM] | EC50, CellTox Green [31] [nM] | EC50, CellTox Green [32] [nM] | EC50, CellTox Green [33] [nM] | EC50, CellTox Green [34] [nM] | EC50, CellTox Green [35] [nM] | EC50, CellTox Green [36] [nM] | EC50, CellTox Green [37] [nM] | EC50, CellTiter-Blue viability [38] [nM] | EC50, CellTiter-Glo [39] [nM]
Cn1cncc1[C@@](N)(c1ccc(Cl)cc1)c1ccc2c(c1)c(-c1cccc(Cl)c1)cc(=O)n2C [Tipifarnib] | 68 | 70.1 | 69.3 | 61.4 | 19.9 | 4740 | 151 | 101 | 4400 | 7.7 | 55.5 | 540 | 5590 | 1450 | 1010 | 97.8 | 3730 | 106 | 8630 | 380 | 412 | 5050 | 16.6 | 1500 | 33 | 33.1 | 59.1 | – | – | – | – | – | – | – | – | – | – | – | –
CCCCCCCCc1ccc(CCC(N)(CO)CO)cc1 [Fingolimod] | 126 | 87.1 | 119 | 86.8 | 7860 | 2040 | – | 2960 | 3440 | – | 2380 | 3870 | 3550 | 3940 | 4430 | 2140 | 2220 | 6870 | 9540 | 9190 | – | 6920 | 5350 | – | – | 5290 | – | 7660 | 320 | 1110 | 2510 | 3460 | 8120 | 7630 | > 10000 | 2650 | 8700 | 1780 | –
COc1ccccc1S(=O)(=O)Nc1ccc2c(c1)CN(C)C(=O)N2 [PFI-1] | – | – | – | – | – | 9560 | – | – | – | – | – | – | – | – | – | – | – | – | – | – | 2670 | 3190 | – | – | – | – | – | – | – | – | – | – | – | – | – | – | – | – | –
CN1CCN(CCOc2cc(OC3CCOCC3)c3c(Nc4c(Cl)ccc5c4OCO5)ncnc3c2)CC1 [Saracatinib] | 107 | 82.6 | 96.3 | 61.6 | 371 | 2940 | – | – | – | – | 567 | 6750 | 1410 | 1540 | – | 13.2 | 1510 | 541 | 5900 | 2550 | – | – | 615 | 700 | 447 | 757 | – | 6610 | – | – | – | 8130 | 1620 | – | – | – | – | > 10000 | 1330
